Read-outs that look alike come from different tables or passages of the source.
Columns and labels:
Assay type in all cases: cell-based
[1] = biological target: T1, BCL-XL (Homo sapiens, UniProt Q07817); test: Bcl-xL ELISA degradation in MOLT-4 cells, 6 h; settings: for DC50: read-out: Bcl-xL ELISA in MOLT-4 degradation 6 h: Mean external-Abs DC50
T1 construct: endogenous in cells; host or cells: MOLT-4
Experimental: The letter codes for BCL-XL DC50 include: A (<0.01 μM); B (0.01-0.1 μM); C (>[…]); D (>0.5-1.0 μM); and E (>1.0 μM). The letter codes for Dmax % include A (>75%); B (50 to 75%); C (<50%).

[2] = tested on: MOLT-4 cells; test: CTG (CellTiter-Glo) cell viability assay, MOLT-4; settings: Homo sapiens, 3 day incubation, read-out: CTG Cell Viability Assay - MOLT-4 3 day: Average external-IC50
Procedure, shortened: (§1)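 MOLT-4 and Caki-2 cells were seeded at 10,000 per well and treated with a 9-point, 1:3 dilution series from 10 μM top concentration (0.2% DMSO). After 3 days at 37 °C, 5% CO2, viability was read by CellTiter-Glo luminescence and IC50 fitted by three-parameter logistic.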

[3] = tested on: Caki-2 cells; test: CTG (CellTiter-Glo) cell viability assay, Caki-2; settings: Homo sapiens, 72 h, 3 day incubation, read-out: CTG Chempartner - Caki-2 3 day: Average external-IC50
Procedure, shortened: as §1

T1 sequence (Q07817 whole entry): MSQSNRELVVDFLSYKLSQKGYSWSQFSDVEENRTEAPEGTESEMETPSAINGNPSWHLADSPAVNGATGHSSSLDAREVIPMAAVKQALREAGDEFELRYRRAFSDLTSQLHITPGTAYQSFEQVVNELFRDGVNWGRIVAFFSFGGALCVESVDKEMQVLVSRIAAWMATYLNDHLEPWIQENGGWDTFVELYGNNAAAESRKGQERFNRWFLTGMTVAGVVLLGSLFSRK

| Compound | Dmax [1] [%] | DC50 [1] [µM] | IC50 ([2]; MOLT-4, 72 h) [µM] | IC50 [3] [µM] | IC50 ([2]; 72 h) [µM] |
| --- | --- | --- | --- | --- | --- |
| Cc1c(-c2ccc(N3CCc4cccc(C(=O)Nc5nc6ccccc6s5)c4C3)nc2C(=O)NS(=O)(=O)CCCCCc2ccc3c(c2)n(C)c(=O)n3C2CCC(=O)NC2=O)cnn1CC1CCCCC1 (centres unmarked) [I-425] | > 75 | < 0.01 | < 0.1 | 1 to 10 | – |
| Cc1c(-c2ccc(N3CCc4cccc(C(=O)Nc5nc6ccccc6s5)c4C3)nc2C(=O)NS(=O)(=O)CCCCCc2cccc3c2n(C)c(=O)n3C2CCC(=O)NC2=O)cnn1CC1CCCCC1 (centres unmarked) [I-426] | > 75 | < 0.01 | < 0.1 | 1 to 10 | – |
| Cc1cc(N(C)c2ccc(-c3cnn(CC45CC6CC(CC(C6)C4)C5)c3C)c(C(=O)NS(=O)(=O)CCN(C)CCC(=O)N[C@H](C(=O)N3C[C@H](O)C[C@H]3C(=O)N[C@@H](C)c3ccc(-c4scnc4C)cc3)C(C)(C)C)n2)nnc1Nc1nc2ccccc2s1 [I-428] | > 75 | 0.01 to 0.1 | < 0.1 | > 10 | – |
| C#Cc1ccc(CNC(=O)[C@@H]2C[C@@H](O)CN2C(=O)[C@@H](NC(=O)CCNCCS(=O)(=O)NC(=O)c2nc(N(C)c3cc(C)c(Nc4nc5ccccc5s4)nn3)ccc2-c2cnn(CC34CC5CC(CC(C5)C3)C4)c2C)C(C)(C)C)cc1 [I-429] | > 75 | 0.01 to 0.1 | 0.1 to 1 | > 10 | – |
| C#Cc1ccc(CNC(=O)[C@@H]2C[C@@H](O)CN2C(=O)[C@@H](NC(=O)CCN(C)CCS(=O)(=O)NC(=O)c2nc(N(C)c3cc(C)c(Nc4nc5ccccc5s4)nn3)ccc2-c2cnn(CC34CC5CC(CC(C5)C3)C4)c2C)C(C)(C)C)cc1 [I-430] | > 75 | 0.01 to 0.1 | < 0.1 | > 10 | – |
| C#Cc1ccc(CNC(=O)[C@@H]2C[C@@H](O)CN2C(=O)[C@@H](NC(=O)C2CN(CCS(=O)(=O)NC(=O)c3nc(N(C)c4cc(C)c(Nc5nc6ccccc6s5)nn4)ccc3-c3cnn(CC45CC6CC(CC(C6)C4)C5)c3C)C2)C(C)(C)C)cc1 [I-433] | > 75 | 0.1 to 0.5 | 0.1 to 1 | > 10 | – |
| Cc1cc(N(C)c2ccc(-c3cnn(CC45CC6CC(CC(C6)C4)C5)c3C)c(C(=O)NS(=O)(=O)c3ccc(N4CC(C(=O)N[C@H](C(=O)N5C[C@H](O)C[C@H]5C(=O)N[C@@H](C)c5ccc(-c6scnc6C)cc5)C(C)(C)C)C4)cc3)n2)nnc1Nc1nc2ccccc2s1 [I-434] | > 75 | 0.01 to 0.1 | < 0.1 | > 10 | – |
| Cc1cc(N(C)c2ccc(-c3cnn(CC4CCCCC4)c3C)c(C(=O)NS(=O)(=O)CCCCCC(=O)N[C@H](C(=O)N3C[C@H](O)C[C@H]3C(=O)N[C@@H](C)c3ccc(-c4scnc4C)cc3)C(C)(C)C)n2)nnc1Nc1nc2cccnc2s1 [I-436] | > 75 | 0.5 to 1 | 1 to 3 | > 10 | – |
| Cc1cc(N(C)c2ccc(-c3cnn(CC45CC6CC(CC(C6)C4)C5)c3C)c(C(=O)NS(=O)(=O)c3ccc(N4CC(C(=O)N[C@H](C(=O)N5C[C@H](O)C[C@H]5C(=O)NCc5ccc(-c6scnc6C)cc5)C(C)(C)C)C4)cc3)n2)nnc1Nc1nc2ccccc2s1 [I-437] | > 75 | 0.01 to 0.1 | < 0.1 | > 10 | – |
| C#Cc1ccc([C@H](C)NC(=O)[C@@H]2C[C@@H](O)CN2C(=O)[C@@H](NC(=O)C2CN(c3ccc(S(=O)(=O)NC(=O)c4nc(N(C)c5cc(C)c(Nc6nc7ccccc7s6)nn5)ccc4-c4cnn(CC56CC7CC(CC(C7)C5)C6)c4C)cc3)C2)C(C)(C)C)cc1 [I-438] | > 75 | < 0.01 | < 0.1 | > 10 | – |
| C#Cc1ccc(CNC(=O)[C@@H]2C[C@@H](O)CN2C(=O)[C@@H](NC(=O)C2CN(c3ccc(S(=O)(=O)NC(=O)c4nc(N(C)c5cc(C)c(Nc6nc7ccccc7s6)nn5)ccc4-c4cnn(CC56CC7CC(CC(C7)C5)C6)c4C)cc3)C2)C(C)(C)C)cc1 [I-440] | > 75 | < 0.01 | < 0.1 | > 10 | – |
| Cc1ncsc1-c1ccc([C@H](C)NC(=O)[C@@H]2C[C@@H](O)CN2C(=O)[C@@H](NC(=O)CCCCCS(=O)(=O)NC(=O)c2nc(N3CCc4cccc(C(=O)Nc5nc6ccccc6s5)c4C3)ccc2-c2cnn(CC3CCCC3)c2C)C(C)(C)C)cc1 [I-442] | > 75 | 0.01 to 0.1 | < 0.1 | > 10 | – |
| Cc1cc(N(C)c2ccc(-c3cnn(CC4CCCC4)c3C)c(C(=O)NS(=O)(=O)CCCCCC(=O)N[C@H](C(=O)N3C[C@H](O)C[C@H]3C(=O)N[C@@H](C)c3ccc(-c4scnc4C)cc3)C(C)(C)C)n2)nnc1Nc1nc2ccccc2s1 [I-443] | > 75 | 0.1 to 0.5 | > 3 | > 10 | – |
| C#Cc1ccc(CNC(=O)[C@@H]2C[C@@H](O)CN2C(=O)[C@@H](NC(=O)CCCCCS(=O)(=O)NC(=O)c2nc(N3CCc4cccc(C(=O)Nc5nc6ccccc6s5)c4C3)ccc2-c2cnn(CC3CCCC3)c2C)C(C)(C)C)cc1 [I-444] | > 75 | < 0.01 | < 0.1 | > 10 | – |
| C#Cc1ccc(CNC(=O)[C@@H]2C[C@@H](O)CN2C(=O)[C@@H](NC(=O)CCCCCS(=O)(=O)NC(=O)c2nc(N3CCc4cccc(C(=O)Nc5nc6cccnc6s5)c4C3)ccc2-c2cnn(CC3CCCC3)c2C)C(C)(C)C)cc1 [I-445] | > 75 | 0.01 to 0.1 | 0.1 to 1 | > 10 | – |
| C#Cc1ccc(CNC(=O)[C@@H]2C[C@@H](O)CN2C(=O)[C@@H](NC(=O)CCCCCS(=O)(=O)NC(=O)c2nc(N(C)c3cc(C)c(Nc4nc5cccnc5s4)nn3)ccc2-c2cnn(CC34CC5CC(CC(C5)C3)C4)c2C)C(C)(C)C)cc1 [I-446] | > 75 | 0.01 to 0.1 | 0.1 to 1 | > 10 | – |
| Cc1cc(N(C)c2ccc(-c3cnn(CC45CC6CC(CC(C6)C4)C5)c3C)c(C(=O)NS(=O)(=O)CC3CCN(CC(=O)N[C@H](C(=O)N4C[C@H](O)C[C@H]4C(=O)N[C@@H](C)c4ccc(-c5scnc5C)cc4)C(C)(C)C)CC3)n2)nnc1Nc1nc2cccnc2s1 [I-449] | > 75 | 0.1 to 0.5 | – | > 10 | > 3 |

More lines, main results first:

| Dmax [1] [%] | DC50 [1] [µM] | IC50 ([2]; MOLT-4, 72 h) [µM] | Compound | IC50 [3] [µM] | IC50 ([2]; 72 h) [µM] |
| --- | --- | --- | --- | --- | --- |
| > 75 | 0.01 to 0.1 | 0.1 to 1 | C#Cc1ccc([C@H](C)NC(=O)[C@@H]2C[C@@H](O)CN2C(=O)[C@@H](NC(=O)CCCCCS(=O)(=O)NC(=O)c2nc(N(C)c3cc(C)c(Nc4nc5cccnc5s4)nn3)ccc2-c2cnn(CC34CC5CC(CC(C5)C3)C4)c2C)C(C)(C)C)cc1 [I-447] | > 10 | – |
| > 75 | 0.01 to 0.1 | 0.1 to 1 | Cc1cc(N(C)c2ccc(-c3cnn(CC45CC6CC(CC(C6)C4)C5)c3C)c(C(=O)NS(=O)(=O)CCCCCC(=O)N[C@H](C(=O)N3C[C@H](O)C[C@H]3C(=O)NCc3ccc(-c4scnc4C)cc3)C(C)(C)C)n2)nnc1Nc1nc2cccnc2s1 [I-451] | > 10 | – |
| > 75 | 0.1 to 0.5 | 1 to 3 | Cc1cc(N(C)c2ccc(-c3cnn(CC45CC6CC(CC(C6)C4)C5)c3C)c(C(=O)NS(=O)(=O)CCCC(=O)N[C@H](C(=O)N3C[C@H](O)C[C@H]3C(=O)N[C@@H](C)c3ccc(-c4scnc4C)cc3)C(C)(C)C)n2)nnc1Nc1nc2cccnc2s1 [I-452] | > 10 | – |
| > 75 | 0.1 to 0.5 | > 3 | C#Cc1ccc(CNC(=O)[C@@H]2C[C@@H](O)CN2C(=O)[C@@H](NC(=O)CCCCS(=O)(=O)NC(=O)c2nc(N(C)c3cc(C)c(Nc4nc5cccnc5s4)nn3)ccc2-c2cnn(CC34CC5CC(CC(C5)C3)C4)c2C)C(C)(C)C)cc1 [I-453] | > 10 | – |
| > 75 | 0.01 to 0.1 | 1 to 3 | C#Cc1ccc([C@H](C)NC(=O)[C@@H]2C[C@@H](O)CN2C(=O)[C@@H](NC(=O)CCCCS(=O)(=O)NC(=O)c2nc(N(C)c3cc(C)c(Nc4nc5cccnc5s4)nn3)ccc2-c2cnn(CC34CC5CC(CC(C5)C3)C4)c2C)C(C)(C)C)cc1 [I-454] | > 10 | – |
| < 50 | > 1 | > 3 | Cc1cc(N(C)c2ccc(-c3cnn(CC(C)(C)C)c3C)c(C(=O)NS(=O)(=O)c3ccc(N4CCC(C(=O)N[C@H](C(=O)N5C[C@H](O)C[C@H]5C(=O)N[C@@H](C)c5ccc(-c6scnc6C)cc5)C(C)(C)C)CC4)cc3)n2)nnc1Nc1nc2cccnc2s1 [I-456] | > 10 | – |
| 50 to 75 | 0.5 to 1 | 1 to 3 | Cc1cc(N(C)c2ccc(-c3cnn(CC4CCCC4)c3C)c(C(=O)NS(=O)(=O)c3ccc(N4CCC(C(=O)N[C@H](C(=O)N5C[C@H](O)C[C@H]5C(=O)N[C@@H](C)c5ccc(-c6scnc6C)cc5)C(C)(C)C)CC4)cc3)n2)nnc1Nc1nc2cccnc2s1 [I-457] | > 10 | – |
| > 75 | < 0.01 | < 0.1 | Cc1ncsc1-c1ccc([C@H](C)NC(=O)[C@@H]2C[C@@H](O)CN2C(=O)[C@@H](NC(=O)CCCCCS(=O)(=O)NC(=O)c2nc(N3CCc4cccc(C(=O)Nc5nc6c(F)cccc6s5)c4C3)ccc2-c2cnn(CC3CCCCC3)c2C)C(C)(C)C)cc1 [I-459] | > 10 | – |
| > 75 | 0.01 to 0.1 | < 0.1 | Cc1cnc(NC(=O)c2cccc3c2CN(c2ccc(-c4cnn(CC5CCCCC5)c4C)c(C(=O)NS(=O)(=O)CCCCCC(=O)N[C@H](C(=O)N4C[C@H](O)C[C@H]4C(=O)N[C@@H](C)c4ccc(-c5scnc5C)cc4)C(C)(C)C)n2)CC3)s1 [I-460] | > 10 | – |

Reference: patent publication US20250197387A1, “BCL-XL DEGRADERS AND USES THEREOF” (Kymera Therapeutics, Inc., priority 2021, published 2025)
